Source: patent publication US10752626B2, “Iso-citrate dehydrogenase (IDH) inhibitor” (SHANGHAI METON PHARMACEUTICAL CO., LTD, priority 2016, dated 2020)

Key:
[1] = Metabolic stability in mouse plasma; assay type: in vitro ADME
Description: Blank male/female mouse plasma was provided by 3D BioOptima (Suzhou, China) and was freshly collected prior to use. The acetonitrile was purchased from Honeywell International Inc. (New Jersey, U.S.).
At each set time point (0, 15, 30, 60, 120 min), small aliquots from the plasma samples was transferred (each of 20 μL) into the mirocentrifuge tubes, then was added into 200 μL IS containing acetonitrile for protein precipitation. […] All incubations were performed in duplicate. In vitro compound stability was calculated by using the following equations: […]
where Ct is the area ratio of the sample to the IS at […] post-incubation, and C0 is the area ratio of the sample to the IS at 0 h pre-incubation.
In this study, the metabolic stability of the compounds in mouse plasma was assessed according to the method disclosed in Test 3 of the Biological evaluation section.

[2] = molecular target: IDH1 R132H (Homo sapiens (Human), UniProt O75874, R132H); assay: Biochemical assay for inhibition of mutant IDH1 R132H; details: tested in triplet
IDH1 R132H, sequence (O75874 whole entry R132H): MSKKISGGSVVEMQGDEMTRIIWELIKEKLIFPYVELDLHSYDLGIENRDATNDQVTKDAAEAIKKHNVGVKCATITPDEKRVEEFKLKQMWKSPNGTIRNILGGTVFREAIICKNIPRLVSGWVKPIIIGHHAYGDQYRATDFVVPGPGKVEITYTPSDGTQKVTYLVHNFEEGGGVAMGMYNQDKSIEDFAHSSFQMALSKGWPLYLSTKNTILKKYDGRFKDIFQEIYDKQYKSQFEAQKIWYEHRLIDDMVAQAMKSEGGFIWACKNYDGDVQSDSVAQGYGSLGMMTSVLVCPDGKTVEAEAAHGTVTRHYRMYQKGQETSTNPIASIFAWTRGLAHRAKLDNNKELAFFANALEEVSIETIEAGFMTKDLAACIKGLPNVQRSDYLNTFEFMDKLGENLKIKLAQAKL
Source text: The present disclosure provides a biochemical assay method for detecting the IDH inhibition and selectivity of the compounds by detecting IDH enzyme activity directly.
Wild-type IDH enzyme could convert NADP^+ to NADPH when it catalyzes the α-KG producing reaction. Mutant IDH enzyme could convert NADPH to NADP^+ when it catalyzes the D-2-HG producing reaction. So the activity of wild-type and mutant IDH1/2 could be measured by monitoring NADPH level change: in the reaction catalyzed by wild-type IDH1/2, the newly generated NADPH is utilized instantly by coupled diaphorase-resazurin reaction to generate resorufin which is fluorescent (at Excitation 544 nm, Emission 590 nm) and thus NADPH is monitored indirectly; while in the reaction catalyzed by mutant IDH1/2, NADPH is directly monitored as it is fluorescent (at Excitation 340 nm, Emission 460 nm). By monitoring the change of NADPH level in the reaction, the enzyme activity could be determined rapidly and efficiently, IC50 of a compound could also be assayed.
The test compounds were prepared into 50 mM stock solutions in DMSO and stored at −20° C. Each test compound stock was further diluted to obtain a 100× stock solution at a concentration of 200 μM, 100 μM, 50 μM, 25 μM, 12.5 jμM, 6.25 μM and 3.125 μM, respectively, for the final use on the day of test.
Inhibition of Mutant IDHJ (R132H or R132C):
Solution A was prepared by combining 1 M Tris-HCl pH7.5 (300 μL), 5 M NaCl (450 μL), 1 M MgCl2 (150 μL), 1 M DTT (15 μL), 20 mg/mL BSA (37.5 μL), 20 mM NADPH (20 μL), and 0.5 mM α-KG (40 μL), followed by adding deionized water to a final volume of 15 mL.
Reaction buffer was prepared by combining 1 M Tris-HCl pH 7.5 (200 μL), 5 M NaCl (300 μL), 1 M MgCl2 (100 μL), 1 M DTT (10 μL) and 20 mg/mL BSA (25 μL), followed by adding deionized water to a final volume of 10 mL.
Solution B was prepared by combining the reaction buffer (5 mL) and […] IDH1-R132H (5.21 μL) or 107 μM IDH1-R132C (4.67 μL).
148 μL Solution A was added into each sample well of a 96-well plate P1, and then 2 μL of the test compound solution at each concentration and 2 μL of DMSO (negative control/blank) were added into individual sample well respectively. 50 μL of Solution B was added into each of the sample wells having test compounds and one sample well having DMSO only, and 50 μL of reaction buffer was added into another sample well having DMSO only, respectively. P1 was put into BioTek Synergy H4 Microplate reader (BioTek Instruments Inc., Winooski, U.S.), and the program was set as follows: 37° C., shake plate 5 seconds, run kinetic mode, total detection time 20 min, detection intervals 40 seconds, detection mode fluorescence (at Excitation 340 nm, Emission 460 nm). The data were exported, the relative enzyme activity and the half-maximal inhibitory concentration (IC50) for the test compound were calculated. Relative enzyme activity was calculated as the absolute value of the slope of the Emission 460 reads of each well plotted against time (which represents the conversion rate of ca-KG to 2-HG through IDH1 modulated utilization of NADPH). The Dose-response curve was drawn and the IC50 was calculated via fitting. The IDH inhibition and selectivity of each test compound can be evaluated according to the effect of the compounds on the IDH enzyme activity.
The IDH inhibition activity of the compounds were assessed according to Test 5 of the Biological evaluation section. The test for mutant IDH1 R132H/R132C inhibition of each compound was carried out in triplet. For IDH1 R132H, the enzyme activity of exemplary Compounds 16, 21, 22, 23, 24 and 31 is plotted as a function of logarithm of the concentration of the compound in FIGS. 8A-8C, 9A-9C, 10A-10C, 11A-11C, 12A-12C and 13A-13C, respectively. […]

## CCN1Cc2c(ccnc2N[C@@H](C)c2ccc(Oc3ccc(C)cc3)cc2)C1=O [Compound 16, (S)-2-ethyl-4-(1-(4-(p-tolyloxy)phenyl)ethylamino)-2,3-dihydro-1H-pyrrolo [3,4-c]pyridin-1-one]
[1]
  period over which compound remains stable in mouse plasma: at least 2 hrs
[1]; #2
  K: 0.000737 min⁻¹
[1]; Mean
  K: 0.000737 min⁻¹
[1]; both sexes, #2
  half-life at 2 μM: 15.7 h
[1]; incubation 0 min
  % remaining #1: 100%
  % remaining #2: 100%
  Ln (% remaining) #1: 4.61
  Ln (% remaining) #2: 4.61
  Mean Ln(% remaining): 4.61
[1]; incubation 15 min
  % remaining #1: 99.8%
  % remaining #2: 106%
  Ln (% remaining) #1: 4.60
  Ln (% remaining) #2: 4.66
  Mean Ln(% remaining): 4.63
[1]; incubation 30 min
  % remaining #1: 95.0%
  % remaining #2: 102%
  Ln (% remaining) #1: 4.55
  Ln (% remaining) #2: 4.62
  Mean Ln(% remaining): 4.59
[1]; incubation 60 min
  % remaining #1: 98.4%
  % remaining #2: 98.9%
  Ln (% remaining) #1: 4.59
  Ln (% remaining) #2: 4.59
  Mean Ln(% remaining): 4.59
[1]; incubation 120 min
  % remaining #1: 105%
  % remaining #2: 94.1%
  Ln (% remaining) #1: 4.65
  Ln (% remaining) #2: 4.54
  Mean Ln(% remaining): 4.60
[1]; within the 2 hrs period
  average percentage remaining: above 98.5%
[2]
  IC50: < 1000 nM

## CCN1Cc2c(ccnc2N[C@@H](C)c2ccc(Oc3ccccc3)c(F)c2)C1=O [Compound 23, (S)-2-ethyl-4-((1-(3-fluoro-4-phenoxyphenyl)ethyl)amino)-2,3-dihydro-1H-pyrrolo[3,4-c]pyridin-1-one]
[2]
  IC50: < 1000 nM
